Test results taken from patent publication US7585460B2, “Method for inhibiting the biological acidification of water in contact with materials containing sulfur” (ENI S.p.A., priority 2003, dated 2009).

Key:
Assay type in all cases: cell-based, Thiobacillus
Thiobacilli [1] = assay: Acidification of water on sulfur block with salt englobed in surface sulfur layer, covered with sand (Example 10); settings: 3 mm sulfur layer containing sodium chloride (10%), 2 cm sand
Description: Two blocks of elemental sulfur with an upper surface of approximately 2500 cm^2 (8.5 Kg of sulfur) are positioned in two containers. The surface of one block is then covered with a fine layer (3 mm) of liquid sulfur containing sodium chloride (10%). The upper surface of each block of sulfur is wetted with 250 ml of a bacterial suspension of Thiobacilli containing over 10^8 bacteria per milliliter. The two blocks are subsequently covered with a 2 cm layer of sand and wetted at regular intervals of time with rainwater until the layer of sand is saturated and the rilling of excess water is produced with respect to the saturation. Rainwater is added every month in a quantity equivalent to a fall of 100 mm.
The containers are exposed to the outside environment for three months. At the end of this period, the pH of the water in contact with the sulfur in the two containers, is measured.

Thiobacilli (consortium) = assay: Effect of different salts on acidification, TM medium with sulfur powder and inoculated mixed culture (Example 7)
Description: The verification is aimed at discovering the effects deriving from the presence of different salts at varying concentrations on the same consortium.
A series of 12 100 ml flasks containing 50 ml of TM medium (with 0.4 g of sulfur powder), was inoculated with 1 ml of mixed culture containing 10^8 cells/ml.
• 3 control flasks containing TM and sulfur, with NaCl (0.16 M, 0.33 M, 0.56 M); • 3 flasks with TM, sulfur and Na2SO4 (0.12 M, 0.24 M, 0.56 M); • 3 flasks with TM, sulfur and KCl (0.13 M, 0.26 M, 0.56 M); • 3 flasks with TM, sulfur and KNO3 (0.09 M, 0.19 M, 0.56 M) The data collected are listed in Table 6.

Thiobacilli [2] = assay: Acidification of rainwater over submersed sulfur block wetted with Thiobacilli, outdoors (Example 8); settings: 30 g/l NaCl
Description: Two blocks of elemental sulfur with an upper surface of approximately 2500 cm^2 (8.5 Kg of sulfur) are positioned in two containers. The upper surface of each block of sulfur is wetted with 250 ml of a bacterial suspension of Thiobacilli containing over 10^8 bacteria per milliliter. The two blocks are subsequently submersed with rainwater. Sodium chloride is added to one of the containers until a concentration of 30 g/l is reached.
The containers are exposed to the outside environment for three months, care being taken to regularly replace the water possibly lost by evaporation. At the end of this period, the pH of the solution in the two containers is measured.

[3] = system: Thiobacilli (microbial consortium); assay: Comparison of NaCl and SLS, TM medium with sulfur flowers and inoculated mixed culture (Example 6); settings: for O.D. / p.H.: B: 33 g/l of NaCl
Description: The experiment was aimed at comparing the action of SLS, a known bacteriostatic for Thiobacilli, and Sodium Chloride on the same microbial consortium.
A series of 6 100 ml flasks containing 50 ml of TM medium (with 0.4 g of sulfur flowers), were inoculated with 1 ml of mixed culture containing 10^8 cells/ml.
• A—2 control flasks containing TM and sulfur, without NaCl; • B—2 flasks with TM, sulfur and 33 g/l of NaCl; • C—2 flasks with TM, sulfur and 20 mg/l of SLS (concentration used in literature as bacteriostatic) The pH values and the bacterial growth were measured over a period of 34 days, by means of the increase in the absorbance.

[4] = system: strains of the Thiobacilli type present in a natural environment; assay: Acidification of TM medium or rainwater with sulfur powder, no inoculation (Example 4)
Description: To imitate the bacterial growth conditions in a natural environment, the same experiment as Example 1 was repeated without the inoculation of Thiobacilli.
The TM saline medium was compared with a medium consisting of rainwater sterilized at a low temperature by filtration on a membrane of cellulose nitrate (porosity 0.2 microns).
The experiment is aimed at verifying the inhibiting action of NaCl on the acidification of water rich and poor in nutrients in contact with elemental sulfur due to strains of the Thiobacilli type present in a natural environment.

## [Cl-].[Na+] [NaCl, Sodium Chloride]
Thiobacilli [1]; day 0
  pH: 6.5
Thiobacilli [1]; day 10
  pH: 6.5
Thiobacilli [1]; day 20
  pH: 6.5
Thiobacilli [1]; day 30
  pH: 6.5
Thiobacilli [1]; day 90
  pH: 6.5
Thiobacilli (consortium); salt 0.16 M, day 0
  PH: 6.0
Thiobacilli (consortium); salt 0.16 M, day 2
  PH: 6.0
Thiobacilli (consortium); salt 0.16 M, day 6
  PH: 3.5
Thiobacilli (consortium); salt 0.16 M, day 9
  PH: 2.8
Thiobacilli (consortium); salt 0.16 M, day 12
  PH: 2.8
Thiobacilli (consortium); salt 0.16 M, day 15
  PH: 2.5
Thiobacilli (consortium); salt 0.16 M, day 18
  PH: 2.5
Thiobacilli (consortium); salt 0.16 M, day 20
  PH: 2.5
Thiobacilli (consortium); salt 0.16 M, day 24
  PH: 2.0
Thiobacilli (consortium); salt 0.16 M, day 28
  PH: 1.7
Thiobacilli (consortium); salt 0.16 M, day 30
  PH: 1.6
Thiobacilli (consortium); salt 0.16 M, day 40
  PH: 1.3
Thiobacilli (consortium); salt 0.33 M, day 0
  PH: 6.0
Thiobacilli (consortium); salt 0.33 M, day 2
  PH: 6.0
Thiobacilli (consortium); salt 0.33 M, day 6
  PH: 5.5
Thiobacilli (consortium); salt 0.33 M, day 9
  PH: 5.0
Thiobacilli (consortium); salt 0.33 M, day 12
  PH: 3.0
Thiobacilli (consortium); salt 0.33 M, day 15
  PH: 3.0
Thiobacilli (consortium); salt 0.33 M, day 18
  PH: 3.0
Thiobacilli (consortium); salt 0.33 M, day 20
  PH: 2.5
Thiobacilli (consortium); salt 0.33 M, day 24
  PH: 2.5
Thiobacilli (consortium); salt 0.33 M, day 28
  PH: 1.9
Thiobacilli (consortium); salt 0.33 M, day 30
  PH: 1.7
Thiobacilli (consortium); salt 0.33 M, day 40
  PH: 1.4
Thiobacilli (consortium); salt 0.56 M, day 0
  PH: 6.0
Thiobacilli (consortium); salt 0.56 M, day 2
  PH: 6.0
Thiobacilli (consortium); salt 0.56 M, day 6
  PH: 6.0
Thiobacilli (consortium); salt 0.56 M, day 9
  PH: 6.0
Thiobacilli (consortium); salt 0.56 M, day 12
  PH: 6.0
Thiobacilli (consortium); salt 0.56 M, day 15
  PH: 6.0
Thiobacilli (consortium); salt 0.56 M, day 18
  PH: 6.0
Thiobacilli (consortium); salt 0.56 M, day 20
  PH: 6.0
Thiobacilli (consortium); salt 0.56 M, day 24
  PH: 6.0
Thiobacilli (consortium); salt 0.56 M, day 28
  PH: 6.0
Thiobacilli (consortium); salt 0.56 M, day 30
  PH: 6.0
Thiobacilli (consortium); salt 0.56 M, day 40
  PH: 5.8
Thiobacilli [2]; day 0
  pH: 6.0
Thiobacilli [2]; day 10
  pH: 5.9
Thiobacilli [2]; day 20
  pH: 5.8
Thiobacilli [2]; day 30
  pH: 5.8
Thiobacilli [2]; day 40
  pH: 5.8
Thiobacilli [2]; day 90
  pH: 5.8
[3]; 33 g/l NaCl vs 20 mg/l SLS, possibly due to the different concentrations
  efficacy of the treatment with respect to that with SLS: greater efficacy
[3]; 33 g/l NaCl, 20 mg/l SLS
  inhibition of the acidification of water in contact with elemental sulfur: capable of inhibiting the acidification
[3]; day 0
  O.D.: 0.014
  p.H.: 6.0
[3]; day 3
  O.D.: 0.015
  p.H.: 6.0
[3]; day 5
  O.D.: 0.017
  p.H.: 6.0
[3]; day 8
  O.D.: 0.023
  p.H.: 5.8
[3]; day 11
  O.D.: 0.028
  p.H.: 5.8
[3]; day 16
  O.D.: 0.025
  p.H.: 5.8
[3]; day 21
  O.D.: 0.026
  p.H.: 5.8
[3]; day 23
  O.D.: 0.022
  p.H.: 5.8
[3]; day 28
  O.D.: 0.022
  p.H.: 5.8
[3]; day 31
  O.D.: 0.026
  p.H.: 5.8
[4]; Rainwater + NaCl, day 0
  pH: 6.0
[4]; Rainwater + NaCl, day 2
  pH: 6.0
[4]; Rainwater + NaCl, day 4
  pH: 6.0
[4]; Rainwater + NaCl, day 7
  pH: 6.0
[4]; Rainwater + NaCl, day 9
  pH: 6.0
[4]; Rainwater + NaCl, day 11
  pH: 6.0
[4]; Rainwater + NaCl, day 14
  pH: 6.0
[4]; Rainwater + NaCl, day 21
  pH: 5.8
[4]; Rainwater + NaCl, day 23
  pH: 5.8
[4]; TM Medium + NaCl, day 0
  pH: 6.0
[4]; TM Medium + NaCl, day 2
  pH: 6.0
[4]; TM Medium + NaCl, day 4
  pH: 6.0
[4]; TM Medium + NaCl, day 7
  pH: 6.0
[4]; TM Medium + NaCl, day 9
  pH: 6.0
[4]; TM Medium + NaCl, day 11
  pH: 6.0
[4]; TM Medium + NaCl, day 14
  pH: 6.0
[4]; TM Medium + NaCl, day 21
  pH: 5.8
[4]; TM Medium + NaCl, day 23
  pH: 5.8
